Experiments:
[1] = Separation of surfactant from PEG400, observed for seven days; type: physicochemical; conditions: 1 wt. % solution in PEG400, 50 ml tubes, observed daily for seven days
Protocol: 1 wt. % solutions of C8AO (Hexyl dimethyl amine oxide), C10AO (NN dimethyl octyl amine oxide), C14AO (NN Dimethyl dodecyl amine oxide), […] and C18AO (NN Dimethyl-N-oxide hexadecane amine) with PEG400 were prepared and placed in 50 ml tubes. The tubes were observed daily for seven days. No separation of surfactant from PEG400 was observed.

[2] = Protocol: Non-ionic surfactants (Tergitol 15-S-5, Surfynol465), an amphoteric surfactant (Mackam OCT-50), an anionic surfactant (Dodecylbenzene sulfonate Na) and a cationic surfactant (Cetyl trimethyl ammonium bromide) were tested for solubility in an inkjet test ink having the following formulation.
The pass/fail criteria were the absence or presence of insoluble material on the bottom on the container after three days at room temperature.

[3] = Wetting effectiveness of surfactants on orifice (nozzle) plate; type: physicochemical; set-up: key: Good: Wetting is considered “good” when a very thick layer of ink spreads out evenly on the orifice plate
Protocol: To determine an effective surfactant concentration range in a servicing fluid, the following procedure was used. A think uniform coat of test servicing fluid was applied to the nozzle plate. 0.5 μl of drop test ink was then applied to the coated nozzle plate and the maximum dot diameter was then measured.
Wetting is considered “good” when a very thick layer of ink spreads out evenly on the orifice plate.

| Separation of surfactant from PEG400 [1] | Structure (SMILES) | Compatibility [2] | other results |
| --- | --- | --- | --- |
| No separation | CCCCCCCCCCCCCCCC[N+](C)(C)[O-] [NN Dimethyl-N-oxide hexadecane amine] |  |  |
| No separation | CCCCCCCCCCCCCC[N+](C)(C)[O-] [Myristyl dimethyl amine oxide] |  |  |

Continued, molecule first:

| Structure (SMILES) | Separation of surfactant from PEG400 [1] | Compatibility [2] | other results |
| --- | --- | --- | --- |
| CCCCCCCCCCCCCCCC[N+](C)(C)C.[Br-] [Cetyl trimethyl ammonium bromide] |  | Fail |  |
| CCCCCCCC[N+](C)(C)[O-] [Dimethyl Octylamine oxide] | No separation |  | Wetting ([3]; 0.01 wt. % surfactant in PEG 300 servicing fluid): Good; Wetting ([3]; 0.1 wt. % surfactant in PEG 300 servicing fluid): Good; Wetting ([3]; 1.0 wt. % surfactant in PEG 300 servicing fluid): Poor; Wetting ([3]; 2.0 wt. % surfactant in PEG 300 servicing fluid): Poor; Wetting ([3]; 3.0 wt. % surfactant in PEG 300 servicing fluid): Poor; Wetting ([3]; 4.0 wt. % surfactant in PEG 300 servicing fluid): Poor |
| CCCCCCCCCCCC[N+](C)(C)[O-] [C14AO, NN Dimethyl dodecyl amine oxide] | No separation |  |  |
| CCCCCC[N+](C)(C)[O-] [Hexyl dimethyl amine oxide] | No separation | Pass |  |

From patent US6378981B1, “Surfactant for inkjet service station wiper fluid” (Hewlett-Packard Company, priority 2000, dated 2002)
